Key:
Type in all cases: cell-based
[1] = molecular target: T1, recombinant CYP-17 (Homo sapiens, UniProt P05093); assay: Cyp17 assay: 3H-acetic acid release from [21-3H] 17α-hydroxyl-Pregnenolone in AD293 cells; conditions: AD293 cells stably over-expressing recombinant CYP-17; eight concentrations 10 μM to 4.5 nM
T1 construct: expressed in transfected cells
T1 sequence (P05093 1-508): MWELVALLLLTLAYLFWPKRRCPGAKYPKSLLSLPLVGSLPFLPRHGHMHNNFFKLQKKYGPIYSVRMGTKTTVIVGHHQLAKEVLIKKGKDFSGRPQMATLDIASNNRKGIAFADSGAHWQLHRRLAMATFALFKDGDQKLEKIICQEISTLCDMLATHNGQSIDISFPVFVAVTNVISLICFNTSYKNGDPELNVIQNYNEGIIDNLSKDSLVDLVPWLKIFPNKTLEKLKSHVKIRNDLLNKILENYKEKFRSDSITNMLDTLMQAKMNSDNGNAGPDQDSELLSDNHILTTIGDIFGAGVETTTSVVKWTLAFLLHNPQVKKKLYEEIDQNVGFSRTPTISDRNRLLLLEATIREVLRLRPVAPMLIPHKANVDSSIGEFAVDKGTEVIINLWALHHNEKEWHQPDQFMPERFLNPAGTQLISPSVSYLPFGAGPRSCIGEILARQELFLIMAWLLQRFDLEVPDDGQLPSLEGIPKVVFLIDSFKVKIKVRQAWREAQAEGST
Experimental: Cyp17 assay protocol: AD293 cells that stably over-express recombinant CYP-17 were seeded in 96 well plates coated with poly D-lysine (15,000 cell per well) and incubated at 37° C. for 24 hours in Dulbecco's Modified Eagle Medium (DMEM) with Fetal Bovine Serum (FBS) that is stripped of hormones by charcoal treatment. The media is then removed, the cells are washed once with Phosphate buffer saline solution, and 50 μL Dulbecco's Modified Eagle Medium (DMEM) with Fetal Bovine Serum (FBS) that is stripped of hormones by charcoal treatment is added. Compounds of the disclosure are then added to the wells in eight concentration spanning 10 μM to 4.5 nM, and the plates are incubated for an additional 60 minutes at 37° C. [21-^3H] 17α-hydroxyl-Pregnenolone is then added (50 nCi per well, 31.25 nM) and the plates are incubated for an additional 4 hours at 37° C. The media is then collected, 200 μL of chloroform is added, and the mixture is shaken for 1 hour. The aqueous layer is then separated and analyzed for the presence of ^3H-acetic acid using a Perkin Elmer Topcount NXT to determine IC50s of the compounds of the disclosure.

[2] = molecular target: T2, recombinant CYP-11 (Homo sapiens, UniProt P15538); assay: Cyp11 assay: cortisol formation from 11-deoxycortisol in AD293 cells, LC/MS; conditions: AD293 cells stably over-expressing recombinant CYP-11; eight concentrations 10 μM to 4.5 nM
T2 construct: expressed in transfected cells
T2 sequence (P15538 25-503): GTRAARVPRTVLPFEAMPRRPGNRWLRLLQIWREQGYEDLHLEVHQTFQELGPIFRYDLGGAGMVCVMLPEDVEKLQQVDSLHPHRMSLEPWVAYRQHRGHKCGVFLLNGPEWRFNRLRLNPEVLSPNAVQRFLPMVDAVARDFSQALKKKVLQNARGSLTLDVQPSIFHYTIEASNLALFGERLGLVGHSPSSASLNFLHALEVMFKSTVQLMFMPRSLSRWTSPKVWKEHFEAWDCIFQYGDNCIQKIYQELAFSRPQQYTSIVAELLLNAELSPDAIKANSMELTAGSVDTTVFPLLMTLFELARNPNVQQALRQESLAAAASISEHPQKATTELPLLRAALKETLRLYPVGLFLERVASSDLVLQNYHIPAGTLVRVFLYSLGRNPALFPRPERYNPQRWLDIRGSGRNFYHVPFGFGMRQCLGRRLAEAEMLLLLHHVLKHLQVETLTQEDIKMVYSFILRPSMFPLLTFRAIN
Experimental: Cyp11 assay protocol: AD293 cells that stably over-express recombinant CYP-11 were seeded in 96 well plates coated with poly D-lysine (15,000 cell per well) and incubated at 37° C. for 24 hours in Dulbecco's Modified Eagle Medium (DMEM) with Fetal Bovine Serum (FBS) that is stripped of hormones by charcoal treatment. The media is then removed, the cells are washed once with Phosphate buffer saline solution, and 50 μL Dulbecco's Modified Eagle Medium (DMEM) with Fetal Bovine Serum (FBS) that is stripped of hormones by charcoal treatment is added. Compounds of the disclosure are then added to the wells in eight concentration spanning 10 μM to 4.5 nM, and the plates are incubated for an additional 60 minutes at 37° C. 11-deoxycortisol is then added ([…]) and the plates are incubated for an additional 12 hours at 37° C. After incubation, 50 uL of the supernatant (medium) is transferred into a fresh plate and 150 uL of an acetonitrile solution containing 200 ng/ml of Telmisartan is added. The sample is mixed and then placed in a centrifuge at 2000 rpm for 5 minutes. 100 uL of the supernatant is transferred into a fresh 96 well deep well plate, 100 uL of 1:1 methanol: water was added, the solution was mixed and then analyzed by LC/MS for the presence of cortisol using an Agilent 1200 RRLC/ABSCIEX API4000 LC-MS or Shimadzu Prominance/ABSCIEX API4000 LC-MS to determine IC50s of the compounds of the disclosure.

[3] = molecular target: T3, recombinant CYP-21 (Homo sapiens, UniProt P08686); assay: Cyp21 assay: 11-deoxycortisol formation from 17-OH Progesterone in AD293 cells, LC/MS; conditions: AD293 cells stably over-expressing recombinant CYP-21; eight concentrations 10 μM to 4.5 nM
T3 construct: expressed in transfected cells
T3 sequence (P08686 1-495): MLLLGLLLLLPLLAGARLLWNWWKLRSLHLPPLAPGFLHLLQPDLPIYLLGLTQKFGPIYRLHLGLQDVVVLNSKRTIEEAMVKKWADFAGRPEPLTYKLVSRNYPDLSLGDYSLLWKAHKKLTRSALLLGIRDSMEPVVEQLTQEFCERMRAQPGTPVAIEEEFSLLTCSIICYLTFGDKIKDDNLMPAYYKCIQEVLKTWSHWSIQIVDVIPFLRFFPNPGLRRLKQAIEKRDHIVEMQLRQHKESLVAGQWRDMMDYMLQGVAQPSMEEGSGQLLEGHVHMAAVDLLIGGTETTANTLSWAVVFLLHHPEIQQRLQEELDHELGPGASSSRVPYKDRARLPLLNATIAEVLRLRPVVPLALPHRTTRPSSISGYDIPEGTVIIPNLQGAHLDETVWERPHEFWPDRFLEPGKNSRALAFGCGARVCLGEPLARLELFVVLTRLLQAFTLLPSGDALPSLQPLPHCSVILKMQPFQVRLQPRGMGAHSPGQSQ
Experimental: Cyp21 assay protocol: AD293 cells that stably over-express recombinant CYP-21 were seeded in 96 well plates coated with poly D-lysine (10,000 cell per well) and incubated at 37° C. for 24 hours in Dulbecco's Modified Eagle Medium (DMEM) with Fetal Bovine Serum (FBS) that is stripped of hormones by charcoal treatment. The media is then removed, the cells are washed once with Phosphate buffer saline solution, and 50 μL Dulbecco's Modified Eagle Medium (DMEM) with Fetal Bovine Serum (FBS) that is stripped of hormones by charcoal treatment is added. Compounds of the disclosure are then added to the wells in eight concentration spanning 10 μM to 4.5 nM, and the plates are incubated for an additional 60 minutes at 37° C. 17-OH Progesterone is then added ([…]) and the plates are incubated for an additional 45 minutes at 37° C. After incubation, 50 uL of the supernatant (medium) is transferred into a fresh plate and 150 uL of an acetonitrile solution containing 200 ng/ml of Telmisartan is added. The sample is mixed and then placed in a centrifuge at 2000 rpm for 5 minutes.

`COc1cc(F)ccc1-c1ccc(C2(c3ccncc3)OCC(C)(C)CO2)cc1` [Entry 6, 4-[2-(4′-Fluoro-2′-methoxy-biphenyl-4-yl)-5,5-dimethyl-[1,3]dioxan-2-yl]-pyridine] was tested, and the IC50 [1] was 600 nM, the IC50 [2] was at least 10000 nM and the IC50 [3] was 2200 nM.

For `COc1ccc(-c2ccc(C3(c4ccncc4)OCCO3)cc2)cc1OC` [Entry 16, 4-[2-(3′,4′-dimethoxy-biphenyl-4-yl)-[1,3]dioxolan-2-yl]-pyridine], the IC50 [1] was 23 nM, the IC50 [2] was 1400 nM and the IC50 [3] was 565 nM.

`COc1cccc(-c2ccc(C(OC)c3ccncc3)cc2)c1` (stereo not drawn) [Entry 34, 4-(methoxy(3′-methoxy-[1,1′-biphenyl]-4-yl)methyl)pyridine] was tested, and the IC50 [1] was 510 nM, the IC50 [2] was 480 nM and the IC50 [3] was 620 nM.

`COc1cc(F)ccc1-c1ccc(C(F)(F)c2ccncc2)cc1` [Entry 2, 4-[Difluoro-(4′-fluoro-2′-methoxy-biphenyl-4-yl)-methyl]-pyridine] was tested, and the IC50 [1] was 2200 nM, the IC50 [2] was at least 10000 nM and the IC50 [3] was 236 nM.

`COc1cc(F)ccc1-c1ccc(C(c2ccncc2)N2CCN(c3ccccc3)CC2)cc1` (stereo not drawn) [Entry 22, 1-((4′-fluoro-2′-methoxy-[1,1′-biphenyl]-4-yl)(pyridin-4-yl)methyl)-4-phenylpiperazine] was tested, and the IC50 [1] was 180 nM, the IC50 [2] was at least 10000 nM and the IC50 [3] was at least 10000 nM.

For `CCOC(c1ccncc1)c1ccc(-c2ccc(OC)c(OC)c2)cc1` (stereo not drawn) [Entry 14, 4-(ethoxy(3′,4′-dimethoxy-[1,1′-biphenyl]-4-yl)methyl)pyridine], the IC50 [1] was 26 nM and the IC50 [3] was 190 nM.

`COc1ccc(-c2ccc(C(F)c3ccncc3)cc2)cc1OC` (stereo not drawn) [Entry 7] was tested, and the IC50 [1] was 14 nM, the IC50 [2] was at least 10000 nM and the IC50 [3] was 940 nM.

With `COc1cc(F)ccc1-c1ccc(C(NCCN)c2ccncc2)cc1` (stereo not drawn) [Entry 26, N1-((4′-fluoro-2′-methoxy-[1,1′-biphenyl]-4-yl)(pyridin-4-yl)methyl)ethane-1,2-diamine] the IC50 [1] was 120 nM, the IC50 [2] was at least 10000 nM and the IC50 [3] was at least 10000 nM.

Compound `COc1ccc(-c2ccc(C(OC(C)C)c3ccncc3)cc2)cc1OC` (stereo not drawn) [Entry 13, 4-(isopropoxy(3′,4′-dimethoxy-[1,1′-biphenyl]-4-yl)methyl)pyridine] has an IC50 [1] of 10 nM and an IC50 [3] of 210 nM.

Work on `COc1cc(F)ccc1-c1ccc(C(c2ccncc2)N2CCN(c3ccccn3)CC2)cc1` (stereo not drawn) [Entry 23, 1-((4′-fluoro-2′-methoxy-[1,1′-biphenyl]-4-yl)(pyridin-4-yl)methyl)-4-(pyridin-2-yl)piperazine] yielded an IC50 [1] of 43 nM, an IC50 [2] of at least 10000 nM and an IC50 [3] of at least 10000 nM.

`COc1ccc(-c2ccc(C(OC)c3ccncc3)cc2)cc1OC` (stereo not drawn) [Entry 15, 4-(methoxy(3′,4′-dimethoxy-[1,1′-biphenyl]-4-yl)methyl)pyridine] gave an IC50 [1] of 11 nM and an IC50 [3] of 180 nM.

In the case of `COc1cc(F)ccc1-c1ccc(C(c2ccncc2)N2CCC(O)CC2)cc1` (stereo not drawn) [Entry 29, 1-((4′-fluoro-2′-methoxy-[1,1′-biphenyl]-4-yl)(pyridin-4-yl)methyl)piperidin-4-ol], the IC50 [1] is reported as 12 nM, the IC50 [2] is reported as at least 10000 nM and the IC50 [3] is reported as 4000 nM.

Compound `COc1cc(F)ccc1-c1ccc(C2(c3ccncc3)OCC(C)CO2)cc1` (stereo not drawn) [Entry 5, 4-[2-(4′-Fluoro-2′-methoxy-biphenyl-4-yl)-5-methyl-[1,3]dioxan-2-yl]-pyridine] has an IC50 [1] of 126 nM, an IC50 [2] of at least 10000 nM and an IC50 [3] of 520 nM.

In the case of `COc1ccc(-c2ccc(C(c3ccncc3)N3CCCC3)cc2)cc1OC` (stereo not drawn) [Entry 11, 4-((3′4′-dimethoxy-[1,1′-biphenyl]-4-yl)(pyrrolidin-1-yl)methyl)pyridine], the IC50 [1] is reported as 10 nM and the IC50 [3] is reported as 2500 nM.

Compound `COc1cc(F)ccc1-c1ccc(C(c2ccncc2)N2CCN(c3ccccc3C#N)CC2)cc1` (stereo not drawn) [Entry 24, 2-(4-((4′-fluoro-2′-methoxy-[1,1′-biphenyl]-4-yl)(pyridin-4-yl)methyl)piperazin-1-yl)benzonitrile] has an IC50 [1] of 192 nM, an IC50 [2] of at least 10000 nM and an IC50 [3] of at least 10000 nM.

`COc1ccc(-c2ccc(C(c3ccncc3)N3CCN(C)CC3)cc2)cc1OC` (stereo not drawn) [Entry 12, 1-((3′4′-dimethoxy-[1,1′-biphenyl]-4-yl)(pyridin-4-yl)methyl)-4-methylpiperazine] gave an IC50 [1] of 77 nM and an IC50 [3] of at least 10000 nM.

Work on `COc1cc(F)ccc1-c1ccc(C2(c3ccncc3)OCCO2)cc1` [Entry 3, 4-[2-(4′-Fluoro-2′-methoxy-biphenyl-4-yl)-[1,3]dioxolan-2-yl]-pyridine] yielded an IC50 [2] of 2000 nM and an IC50 [3] of 820 nM.

In the case of `COc1ccc(-c2ccc(C(c3ccncc3)N3CCCCC3)cc2)cc1OC` (stereo not drawn) [Entry 9], the IC50 [1] is reported as 14 nM and the IC50 [3] is reported as 1200 nM.

`COc1ccc(-c2ccc(C(c3ccncc3)N3CCOCC3)cc2)cc1OC` (stereo not drawn) [Entry 10, 4-((3′,4′-Dimethoxy-[1,1′-biphenyl]-4-yl)(pyridin-4-yl)methyl)morpholine] showed an IC50 [1] of 10 nM and an IC50 [3] of 1800 nM.

Compound `COc1cc(F)ccc1-c1ccc(C2(c3ccncc3)OCCO2)cc1` [Entry 4, 4-[2-(4′-Fluoro-2′-methoxy-biphenyl-4-yl)-[1,3]dioxolan-2-yl]-pyridine] has an IC50 [2] of at least 10000 nM and an IC50 [3] of 320 nM.

— patent US20150210641A1, “NOVEL CYTOCHROME P450 INHIBITORS AND THEIR METHOD OF USE” (CORTENDO AB (PUBL), priority 2014, published 2015)
